Laboratory results as given in patent publication US20150010545A1 (KADMON CORPORATION, LLC, priority 2011, published 2015).

What was measured:
Src [1] = target: T1, Src (Homo sapiens, UniProt P12931); assay: in vitro SRC kinase assay; assay type: biochemical; settings: in vitro kinase assays; read-out: IC50 of inhibition of SRC kinase activity
Method: (§1) Inhibition of SRC kinase activity by EXEL-7647 was measured using in vitro kinase assays. […] In addition, the effect of EXEL-7647 on the phosphorylation of the […] protein FAK (focal adhesion kinase) was measured in cell culture (FIG. 1). Specifically, DLD1-PTK2 cells were treated with EXEL-7647 at concentrations of 1.6, 4.7, 14, 41, 123, 370, 1111, 3333 or 10,000 nM for one hour in serum-free DMEM and harvested. The phosphorylation status of the tyrosine at amino acid position 861 of the FAK protein (“FAK-PY861”) in the treated cells was then determined by standard Western blotting using phosphorylation-specific antibodies, as indicated in FIG. 1. The Western blot was quantified using a Typhoon scanned image and ImageQuant software and the IC50 value for EXEL-7647-mediated inhibition of FAK-phosphorylation calculated. […] The kinase inhibitor staurosporine (EXEL 00878128) was used as a positive control. […] The identifier EXEL-02377647:9 in FIG. 1 refers to compound EXEL-7647.

[2] = test system: FAK (focal adhesion kinase); assay: FAK (PY861) phosphorylation in DLD1-PTK2 cells, Western blot; assay type: cell-based; settings: one hour, serum-free DMEM, read-out: IC50 of inhibition of FAK phosphorylation at tyrosine 861
Method: as §1

BT474 tumor xenografts = assay: BT474 tumor xenograft growth in athymic nude mice; assay type: in vivo, human; settings: oral, three consecutive days
Method: The human breast cancer cell line BT474 expresses high levels of ErbB2 (Her2), a significant fraction of which is constitutively phosphorylated even in the absence of an exogenous ligand. The phosphorylation of ErbB2 is a measure of its activity. Athymic nude mice bearing tumor xenografts derived from the human breast cancer cell line BT474 were treated orally on three consecutive days with 3, 10, 30 or 100 mg/kg of EXEL-7647. The tumors were harvested 1 hr after the final dose was administered and their weights were measured.

ErbB2 (Her2) = ErbB2 (Her2) (Homo sapiens, UniProt P04626); assay: ErbB2 phosphorylation in BT474 tumor xenografts in mice; assay type: in vivo
Sequence of ErbB2 (Her2) (P04626 23-1255): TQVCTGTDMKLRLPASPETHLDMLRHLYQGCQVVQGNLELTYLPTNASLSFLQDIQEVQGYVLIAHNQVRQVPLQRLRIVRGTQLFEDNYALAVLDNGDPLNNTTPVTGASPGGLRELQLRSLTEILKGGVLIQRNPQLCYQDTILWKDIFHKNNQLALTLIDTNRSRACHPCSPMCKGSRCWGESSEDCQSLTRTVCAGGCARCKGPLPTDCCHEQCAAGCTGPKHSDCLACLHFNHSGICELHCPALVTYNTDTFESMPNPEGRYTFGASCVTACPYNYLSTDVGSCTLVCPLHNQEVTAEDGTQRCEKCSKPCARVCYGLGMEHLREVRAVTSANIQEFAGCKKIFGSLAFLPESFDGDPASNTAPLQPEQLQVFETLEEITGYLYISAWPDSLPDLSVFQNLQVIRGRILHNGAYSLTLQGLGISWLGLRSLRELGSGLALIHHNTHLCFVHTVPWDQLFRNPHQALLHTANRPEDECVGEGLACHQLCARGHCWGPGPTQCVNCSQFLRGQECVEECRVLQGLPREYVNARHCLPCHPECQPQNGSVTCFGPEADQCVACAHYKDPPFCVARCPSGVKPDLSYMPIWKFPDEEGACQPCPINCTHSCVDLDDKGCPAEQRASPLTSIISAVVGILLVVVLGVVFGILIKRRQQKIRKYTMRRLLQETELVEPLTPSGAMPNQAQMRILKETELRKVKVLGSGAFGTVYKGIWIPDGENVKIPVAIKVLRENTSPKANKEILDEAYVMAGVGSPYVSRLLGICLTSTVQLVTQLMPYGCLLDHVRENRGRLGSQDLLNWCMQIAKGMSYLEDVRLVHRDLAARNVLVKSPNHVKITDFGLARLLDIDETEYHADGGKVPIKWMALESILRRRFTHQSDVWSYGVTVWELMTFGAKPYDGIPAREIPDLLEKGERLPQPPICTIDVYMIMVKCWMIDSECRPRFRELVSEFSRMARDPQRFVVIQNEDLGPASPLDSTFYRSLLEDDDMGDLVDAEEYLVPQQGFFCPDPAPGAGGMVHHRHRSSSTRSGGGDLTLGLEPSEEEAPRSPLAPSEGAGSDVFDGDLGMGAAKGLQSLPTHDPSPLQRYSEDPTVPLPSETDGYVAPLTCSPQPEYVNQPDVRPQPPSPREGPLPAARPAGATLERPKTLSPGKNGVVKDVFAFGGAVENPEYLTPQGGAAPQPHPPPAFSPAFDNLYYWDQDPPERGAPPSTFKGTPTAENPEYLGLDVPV

EGFR = EGFR (Homo sapiens, UniProt P00533); assay: EGF-induced EGFR phosphorylation in A431 tumor xenografts in mice; assay type: in vivo
Sequence of EGFR (P00533 25-1210): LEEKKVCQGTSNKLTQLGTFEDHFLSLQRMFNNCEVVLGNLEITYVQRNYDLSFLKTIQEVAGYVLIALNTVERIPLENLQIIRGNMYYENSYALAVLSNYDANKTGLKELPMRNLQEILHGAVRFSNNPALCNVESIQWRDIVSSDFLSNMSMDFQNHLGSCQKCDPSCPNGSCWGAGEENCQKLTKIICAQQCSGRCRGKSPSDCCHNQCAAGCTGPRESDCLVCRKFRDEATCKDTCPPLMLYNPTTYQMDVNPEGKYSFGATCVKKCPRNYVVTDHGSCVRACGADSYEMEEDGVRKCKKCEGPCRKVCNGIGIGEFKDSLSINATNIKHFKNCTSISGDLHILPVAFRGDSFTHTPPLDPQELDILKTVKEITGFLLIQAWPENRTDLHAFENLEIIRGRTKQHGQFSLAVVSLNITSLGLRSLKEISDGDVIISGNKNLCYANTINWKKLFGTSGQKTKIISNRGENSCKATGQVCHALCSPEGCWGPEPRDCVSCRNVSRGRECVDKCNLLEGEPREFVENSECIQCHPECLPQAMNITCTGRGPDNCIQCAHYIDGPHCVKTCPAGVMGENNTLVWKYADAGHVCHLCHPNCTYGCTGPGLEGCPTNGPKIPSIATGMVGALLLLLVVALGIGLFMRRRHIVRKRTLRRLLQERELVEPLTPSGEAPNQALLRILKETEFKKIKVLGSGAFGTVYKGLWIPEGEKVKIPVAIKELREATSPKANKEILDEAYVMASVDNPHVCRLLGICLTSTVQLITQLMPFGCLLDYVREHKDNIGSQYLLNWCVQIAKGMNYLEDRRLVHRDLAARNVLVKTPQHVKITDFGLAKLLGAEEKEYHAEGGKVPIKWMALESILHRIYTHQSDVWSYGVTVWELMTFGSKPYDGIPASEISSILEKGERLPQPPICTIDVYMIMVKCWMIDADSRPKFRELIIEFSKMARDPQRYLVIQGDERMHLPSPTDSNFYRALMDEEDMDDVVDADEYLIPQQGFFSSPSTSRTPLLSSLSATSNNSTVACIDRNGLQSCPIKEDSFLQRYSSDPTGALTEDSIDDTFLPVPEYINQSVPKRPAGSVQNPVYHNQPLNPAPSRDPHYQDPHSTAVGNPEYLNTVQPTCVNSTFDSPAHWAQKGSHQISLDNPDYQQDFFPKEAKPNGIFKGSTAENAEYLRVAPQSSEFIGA

KDR = target: T2, KDR (Mus musculus, UniProt P35918); assay: VEGF-induced KDR phosphorylation in mouse lungs; assay type: in vivo, mice; settings: mouse lung lysate pools; read-out: IC50 of decrease of VEGF-induced KDR receptor phosphorylation (plasma concentration)
T2 construct: from tissue; host or cells: mouse lung
T2 sequence (P35918 20-1345): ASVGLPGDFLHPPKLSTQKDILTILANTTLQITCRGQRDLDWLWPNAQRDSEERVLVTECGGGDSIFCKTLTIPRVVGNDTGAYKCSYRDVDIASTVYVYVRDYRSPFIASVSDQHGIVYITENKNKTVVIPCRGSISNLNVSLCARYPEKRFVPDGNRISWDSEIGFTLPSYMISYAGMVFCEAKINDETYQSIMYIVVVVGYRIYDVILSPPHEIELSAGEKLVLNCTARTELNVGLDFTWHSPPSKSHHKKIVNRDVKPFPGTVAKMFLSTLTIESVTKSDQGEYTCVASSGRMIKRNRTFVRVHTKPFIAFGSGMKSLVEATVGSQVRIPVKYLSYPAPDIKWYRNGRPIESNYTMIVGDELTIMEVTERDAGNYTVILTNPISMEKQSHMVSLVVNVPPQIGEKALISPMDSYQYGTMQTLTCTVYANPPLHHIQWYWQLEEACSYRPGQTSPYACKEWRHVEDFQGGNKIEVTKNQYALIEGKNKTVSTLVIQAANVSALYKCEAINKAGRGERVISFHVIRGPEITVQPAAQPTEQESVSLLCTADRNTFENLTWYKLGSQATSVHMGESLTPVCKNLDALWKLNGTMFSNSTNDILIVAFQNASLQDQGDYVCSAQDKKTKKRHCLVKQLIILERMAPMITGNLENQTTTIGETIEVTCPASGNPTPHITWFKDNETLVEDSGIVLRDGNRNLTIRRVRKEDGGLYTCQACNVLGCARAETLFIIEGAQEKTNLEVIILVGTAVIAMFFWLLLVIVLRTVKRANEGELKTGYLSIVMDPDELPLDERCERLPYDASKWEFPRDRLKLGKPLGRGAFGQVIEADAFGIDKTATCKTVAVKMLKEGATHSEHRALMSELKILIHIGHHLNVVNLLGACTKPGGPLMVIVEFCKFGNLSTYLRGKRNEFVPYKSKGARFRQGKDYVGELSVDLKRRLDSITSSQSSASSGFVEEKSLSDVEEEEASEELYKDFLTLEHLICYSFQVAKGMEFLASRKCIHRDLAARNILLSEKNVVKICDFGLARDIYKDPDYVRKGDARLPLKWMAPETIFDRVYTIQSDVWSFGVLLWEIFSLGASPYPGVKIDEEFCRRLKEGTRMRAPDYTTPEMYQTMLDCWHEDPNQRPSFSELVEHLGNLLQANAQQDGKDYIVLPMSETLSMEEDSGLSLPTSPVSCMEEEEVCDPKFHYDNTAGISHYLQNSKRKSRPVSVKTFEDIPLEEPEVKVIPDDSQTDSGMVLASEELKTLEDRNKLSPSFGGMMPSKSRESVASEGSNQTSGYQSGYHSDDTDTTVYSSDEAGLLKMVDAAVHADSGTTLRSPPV

EphB4 = target: T3, EphB4 (Homo sapiens, UniProt P54760); assay: EphB4 phosphorylation in HCT116/EphB4 xenografts in mice; assay type: in vivo
T3 construct: expressed in transfected cells; host or cells: HCT116 (human colon carcinoma), grown as xenografts in mice
T3 sequence (P54760 16-987): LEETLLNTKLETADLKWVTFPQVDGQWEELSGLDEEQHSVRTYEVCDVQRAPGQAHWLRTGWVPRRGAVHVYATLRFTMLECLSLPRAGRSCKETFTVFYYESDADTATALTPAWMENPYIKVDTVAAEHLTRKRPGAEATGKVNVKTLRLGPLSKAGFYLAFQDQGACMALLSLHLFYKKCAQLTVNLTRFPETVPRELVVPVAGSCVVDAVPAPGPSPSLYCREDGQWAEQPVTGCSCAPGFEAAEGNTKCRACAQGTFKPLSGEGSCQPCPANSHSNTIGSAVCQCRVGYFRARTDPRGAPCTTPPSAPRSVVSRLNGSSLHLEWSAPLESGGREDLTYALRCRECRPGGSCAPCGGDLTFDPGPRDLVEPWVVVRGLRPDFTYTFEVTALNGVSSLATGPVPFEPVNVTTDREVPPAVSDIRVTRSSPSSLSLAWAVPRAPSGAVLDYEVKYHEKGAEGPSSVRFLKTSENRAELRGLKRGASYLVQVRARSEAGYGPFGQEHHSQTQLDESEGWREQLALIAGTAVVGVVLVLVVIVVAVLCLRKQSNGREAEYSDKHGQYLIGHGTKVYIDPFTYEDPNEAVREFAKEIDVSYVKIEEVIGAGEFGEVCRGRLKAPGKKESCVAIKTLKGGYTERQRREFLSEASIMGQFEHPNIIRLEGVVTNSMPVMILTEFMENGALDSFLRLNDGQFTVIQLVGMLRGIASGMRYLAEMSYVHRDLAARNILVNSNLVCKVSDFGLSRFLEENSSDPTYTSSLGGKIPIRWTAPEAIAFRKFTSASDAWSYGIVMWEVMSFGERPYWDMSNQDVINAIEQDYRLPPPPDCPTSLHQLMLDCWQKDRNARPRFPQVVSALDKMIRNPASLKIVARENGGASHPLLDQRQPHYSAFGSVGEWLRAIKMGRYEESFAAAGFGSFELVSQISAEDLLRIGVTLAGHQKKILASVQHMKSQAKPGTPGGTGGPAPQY
Excerpt: The ability of EXEL-7647 to inhibit the activity of the EphB4 receptor (determined by measuring the receptor's level of phosphorylation) was validated as follows. A cell line expressing high levels of EphB4 was derived by transfecting the human colon carcinoma line HCT116 with a drug selectable marker and an expression vector encoding EphB4. The resulting EphB4 expressing cells (HCT116/EphB4) grow as xenografts in immunocompromised mice. […] Attempts to further stimulate EphB4-phosphorylation by intravenous or intratumoral injection of […] were not successful (data not shown).
Mice bearing HCT116/EphB4 xenografts were dosed orally on three consecutive days with 3, 10, 30 or 100 mg/kg EXEL-7647. Tumors were harvested 1 hr after the final dose and assayed individually or in treatment groups for total and phospho-EphB4 levels by standard Western blotting (FIG. 5, left panel). Tumors from mice treated with vehicle alone served as the negative control. The detection of actin served as a control for protein integrity and concentration.
The plasma concentrations of EXEL-7647 in the mice carrying the analyzed tumors (see above) were determined as well and correlated with the corresponding reductions of phospho-EPHB4 levels (FIG. 5, right panel).

[3] = test system: human microvascular endothelial cells (HMVECs); assay: VEGF-induced endothelial tubule formation assay; assay type: cell-based; settings: HMVEC; HMVECs on human diploid fibroblasts, CD31 staining; read-out: IC50 of inhibition of VEGF-induced tubule formation
Excerpt: When plated on a confluent layer of normal human diploid fibroblasts, human microvascular endothelial cells (HMVECs) form extensive networks of tubules in response to VEGF over a 7-10 day period.

[4] = test system: MDA-MB-231 tumor xenografts; assay: MDA-MB-231 xenografts, 14-day dosing: tumor growth, necrosis, CD31, Ki67; assay type: in vivo, human; settings: fourteen days; for CD31 Analysis MVC (mean vessel count) / Ki67 Expression % of Cells / Necrosis % increase: mean (SD)
Method: Anti-angiogenic effects of EXEL-7647 were also studied in vivo. Tumor xenografts derived from the human breast cancer cell line MDA-MB-231 were established in athymic female mice and allowed to reach a total weight of 100 mg. The mice were then treated orally on fourteen consecutive days with doses of 10, 30 or 100 mg/kg of EXEL-7647. The tumors were harvested and their weights were measured after the last dosage had been administered. Tumors derived from mice treated with vehicle alone served as negative controls. […] A statistically significant increase in tumor necrosis was not observed at the lower dose of 10 mg/kg in this model.

[5] = test system: MDA-MB-231 tumor xenografts; assay: MDA-MB-231 xenograft growth, up to 28-day dosing; assay type: in vivo, human
Method: The ability of EXEL-7647 to inhibit the growth of tumors derived from the human breast cancer cell line MDA-MB-231 was validated as follows. Tumor xenografts derived from MDA-MB-231 cells were established in athymic female mice and allowed to reach a total weight of 100 mg. The mice were then treated orally on up to twenty-eight consecutive days with doses of 10, 30 or 100 mg/kg of EXEL-7647. The tumors were harvested on specific days after treatment with XL647 had begun and their weights were measured, as indicated in FIG. 7. Tumors derived from mice treated with vehicle alone served as negative controls.

JIMT-1 cells = assay: JIMT-1 cell proliferation assay (CellTiter 96 AQueous); assay type: cell-based; settings: Homo sapiens, 72 hours
HCC1954 cells = assay: HCC1954 cell proliferation assay (CellTiter 96 AQueous); assay type: cell-based; settings: Homo sapiens, 72 hours
HMVECs = settings: human
[6] = cytotoxicity on HMVECs, Alamar blue staining; settings: human, human microvascular endothelial cells (HMVECs)
[7] = test system: murine MS1 endothelial cells; assay: scratch assay, VEGF-stimulated endothelial cell migration
Src [8] = target: T1, Src; settings: both cell lines (JIMT-1, HCC1954), 18 hours of treatment

T1 sequence (P12931 whole entry): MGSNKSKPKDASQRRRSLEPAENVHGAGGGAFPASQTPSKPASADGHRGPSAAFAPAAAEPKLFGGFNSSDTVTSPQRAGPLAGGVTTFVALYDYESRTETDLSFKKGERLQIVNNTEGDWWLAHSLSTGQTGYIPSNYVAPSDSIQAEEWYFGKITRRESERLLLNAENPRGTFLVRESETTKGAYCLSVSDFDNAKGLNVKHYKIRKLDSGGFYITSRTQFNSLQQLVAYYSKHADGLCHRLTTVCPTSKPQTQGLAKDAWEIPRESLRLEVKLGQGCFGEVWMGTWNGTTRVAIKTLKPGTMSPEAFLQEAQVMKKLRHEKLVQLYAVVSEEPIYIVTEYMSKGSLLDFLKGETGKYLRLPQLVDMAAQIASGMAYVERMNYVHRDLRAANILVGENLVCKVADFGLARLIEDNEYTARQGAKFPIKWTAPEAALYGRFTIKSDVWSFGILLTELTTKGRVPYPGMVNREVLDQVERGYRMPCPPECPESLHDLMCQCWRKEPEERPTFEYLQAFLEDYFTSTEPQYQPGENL

With COc1cc2c(Nc3ccc(Cl)c(Cl)c3F)ncnc2cc1OCC1C[C@@H]2CN(C)C[C@@H]2C1 (stereo partly drawn) [EXEL-7647, N-(3,4-dichloro-2-fluorophenyl)-7-({[(3aR,6aS)-2-methyloctahydrocyclopenta[c]pyrrol-5-yl]methyl}oxy)-6-(methyloxy)quinazolin-4-amine] the IC50 (Src [1]) was 10.3 nM, the IC50 [2] was ~1000 nM and the “calculated ED50 of inhibition of tumor growth” value (BT474 tumor xenografts) was 30 mg EXEL-7647 per kg of body weight. The “reduction of phospho-ErbB2” value (ErbB2 (Her2); 100 mg/kg oral on three consecutive days, vs vehicle) was “approximately 70%”, the IC50 (ErbB2 (Her2); BT474 xenografts, correlated with plasma concentration, read-out: IC50 of inhibition of phospho-ErbB2 accumulation in tumors (plasma concentration)) was 3580 nM and the “reduction of phospho-ErbB2” value (ErbB2 (Her2); plasma concentration of about 5.37 μM) was “approximately 69%”. For the same molecule, the “reduction of EGF-induced EGFR-phosphorylation” value (EGFR; 100 mg/kg oral, vs positive control) was “about 90%”, the IC50 (EGFR; read-out: IC50 plasma concentration for inhibition of EGFR phosphorylation in tumors) was 720 nM and the IC50 (KDR) was ~1230 nM. For the same molecule, the “reduction of phospho-EphB4” value (EphB4; 100 mg/kg oral on three consecutive days) was “approximately 70%”, the IC50 (EphB4; HCT116/EphB4 xenografts, read-out: plasma concentration predicted for 50% inhibition of EphB4-phosphorylation) was ~2400 nM and the “reduction of EphB4 phosphorylation in tumors” value (EphB4; plasma concentration of about 3 μM) was “approximately 70%”. For the same molecule, the IC50 [3] was ~220 nM, the “CD31 Analysis % Reduction” value ([4]; 10 mg/kg oral) was 30.23% and the “Ki67 Expression % Reduction” value ([4]; 10 mg/kg oral) was 39.6%. The Necrosis fold increase ([4]; 10 mg/kg oral) was 1.6 fold, the “CD31 Analysis MVC (mean vessel count)” value ([4]; 10 mg/kg oral) was 12.93 (2.3) and the “Ki67 Expression % of Cells” value ([4]; 10 mg/kg oral) was 29.8 (13.3) %. For the same molecule, the Necrosis % increase ([4]; 10 mg/kg oral) was 25.0 (14.2) %, the “CD31 Analysis % Reduction” value ([4]; 30 mg/kg oral) was 55.83% and the “Ki67 Expression % Reduction” value ([4]; 30 mg/kg oral) was 42.6%. The Necrosis fold increase ([4]; 30 mg/kg oral) was 2.0 fold, the “CD31 Analysis MVC (mean vessel count)” value ([4]; 30 mg/kg oral) was 8.18 (1.4) and the “Ki67 Expression % of Cells” value ([4]; 30 mg/kg oral) was 28.3 (10.4) %. For the same molecule, the Necrosis % increase ([4]; 30 mg/kg oral) was 30.6 (11.3) %, the “CD31 Analysis % Reduction” value ([4]; 100 mg/kg oral) was 91.23% and the “Ki67 Expression % Reduction” value ([4]; 100 mg/kg oral) was 49.6%. For the same molecule, the Necrosis fold increase ([4]; 100 mg/kg oral) was 4.5 fold, the “CD31 Analysis MVC (mean vessel count)” value ([4]; 100 mg/kg oral) was 1.625 (1) and the “Ki67 Expression % of Cells” value ([4]; 100 mg/kg oral) was 24.87 (4.9) %. The Necrosis % increase ([4]; 100 mg/kg oral) was 71.1 (8.1) %, the “tumor weight at end of study” value ([4]; 100 mg/kg oral, tumor weight at start 100.6±8.7 mg) was 112 ± 16.2 mg and the final tumor weight ([5]; 100 mg/kg oral, up to twenty-eight days, starting tumor weight 94±9 mg) was 117 ± 33 mg. For the same molecule, the “calculated ED50 of inhibition of tumor growth” value ([5]; MDA-MB-231 xenografts, oral, up to twenty-eight consecutive days) was 22.9 mg of XL647 per kg body weight, the inhibition at 0.2 µM (JIMT-1 cells; EXEL-7647 0.2 μM alone) was 15.7% and the inhibition at 0.5 µM (JIMT-1 cells; EXEL-7647 0.5 μM alone) was 20.3%. For the same molecule, the inhibition at 1 µM (JIMT-1 cells; EXEL-7647 1.0 μM alone) was 22.7%, the inhibition at 2 µM (JIMT-1 cells; EXEL-7647 2.0 μM alone) was 28.8% and the inhibition at 5 µM (JIMT-1 cells; EXEL-7647 5.0 μM alone) was 81.7%. The inhibition at 0.2 µM (HCC1954 cells; EXEL-7647 0.2 μM alone) was 22.5%, the inhibition at 0.5 µM (HCC1954 cells; EXEL-7647 0.5 μM alone) was 32.6% and the inhibition at 1 µM (HCC1954 cells; EXEL-7647 1.0 μM alone) was 38.1%. The inhibition at 2 µM (HCC1954 cells; EXEL-7647 2.0 μM alone) was 43.6%, the inhibition at 5 µM (HCC1954 cells; EXEL-7647 5.0 μM alone) was 80.4% and the “cytotoxicity IC50 relative to IC50 of tubule formation inhibition” value (HMVECs) was “approximately 5 fold”. The IC50 [6] was ~1300 nM, the “cytotoxicity in scratch assay” value ([7]; concentrations below 1.1 μM) was “No evidence for cytotoxicity” and the IC50 ([7]; read-out: IC50 of inhibition of cellular migration into the scratch, VEGF-stimulated MS1 cells, 24 hrs, six-point dose response) was ~120 nM.
In the case of CS(=O)(=O)CCNCc1ccc(-c2ccc3ncnc(Nc4ccc(OCc5cccc(F)c5)c(Cl)c4)c3c2)o1 [lapatinib], the “able to inhibit SRC activity (SRC phosphorylation)” value (Src [8]) is reported as “not”.
